In general, IC50 refers to the concentration that gives 50% inhibition.

In patent US20260242419A1, “A CYCLIC PEPTIDE FOR TRAPPING INTERLEUKIN-1 BETA” (Merck Sharp & Dohme LLC, priority 2023, published 2026) one finds IC50 data, which are given here for five compounds.

Non-standard residues stand in square brackets, D forms with d. Residues, ends and D or L forms follow the SMILES beside them. Trp(4-Cl)(βS-Me) = C[C@@H](c1c[nH]c2cccc(Cl)c12)[C@H](N)C(=O)O; Trp(βS-Me,4-F) = C[C@@H](c1c[nH]c2cccc(F)c12)[C@H](N)C(=O)O; Bip(4'-COOH) = N[C@@H](Cc1ccc(-c2ccc(C(=O)O)cc2)cc1)C(=O)O; dPro(4R-Bzl(4-F)) = O=C(O)[C@H]1C[C@@H](Cc2ccc(F)cc2)CN1; Ala(pyrimidin-5-yl) = N[C@@H](Cc1cncnc1)C(=O)O; Phe(4-COOH) = N[C@@H](Cc1ccc(C(=O)O)cc1)C(=O)O; Pro(cis-4-F) = O=C(O)[C@@H]1C[C@H](F)CN1; aIle = CC[C@@H](C)[C@H](N)C(=O)O; 4Pal = N[C@@H](Cc1ccncc1)C(=O)O; aThr = C[C@H](O)[C@H](N)C(=O)O; αMeK = C[C@](N)(CCCCN)C(=O)O; Dab = NCC[C@H](N)C(=O)O; Aib = CC(C)(N)C(=O)O

T1 sequence (P01584 117-269): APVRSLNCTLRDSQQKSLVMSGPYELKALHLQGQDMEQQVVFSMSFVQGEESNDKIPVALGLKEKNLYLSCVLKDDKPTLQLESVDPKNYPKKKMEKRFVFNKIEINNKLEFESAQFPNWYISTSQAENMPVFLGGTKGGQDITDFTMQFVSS

This assay has as its target T1, IL-1β (Homo sapiens, UniProt P01584).
T1 construct: purchased BioLegend 579404
The experiment in a line: IL-6 assay in MRC5 cells: inhibition of IL-1β induced IL-6 secretion (AlphaLISA). The conditions noted are these: inhibition of IL-1β induced IL-6 secretion in MRC5 cells; read-out: MRC5 IC50. The format is cell-based. The procedure, abridged:
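Compound was pre-incubated 1 h at ambient temperature with recombinant human IL-1β at 2λ EC80 before adding human lung fibroblast MRC5 cells (3000/well) in EMEM with 0.025% BSA. After overnight culture at 37 °C, 5% CO2, secreted IL-6 in conditioned medium was measured by AlphaLISA; IC50 from 4-parameter logistic fits.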
On the technique in general: Bead proximity is the source of the signal in Alpha formats.
Regarding `CC(C)[C@@H]1NC(=O)C(C)(C)NC(=O)[C@H]([C@@H](C)c2c[nH]c3cccc(F)c23)NC(=O)[C@@H]2C[C@H](F)CN2C(=O)CNC(=O)[C@H](Cc2ccc(C(=O)O)cc2)NC(=O)[C@H](Cc2ccncc2)NC(=O)[C@H](Cc2ccc(-c3ccc(C(=O)O)cc3)cc2)NC(=O)[C@H]2C[C@@H](Cc3ccc(F)cc3)CN2C(=O)CNC(=O)[C@H](CCN)NC(=O)[C@H](CCC(N)=O)NC(=O)[C@H](Cc2cncnc2)NC(=O)[C@](C)(CCCCN)NC(=O)[C@H](Cc2c[nH]c3ccccc23)NC1=O` [Example 135] (cyclo([Bip(4'-COOH)][4Pal][Phe(4-COOH)]G[Pro(cis-4-F)][Trp(βS-Me,4-F)][Aib]VW[αMeK][Ala(pyrimidin-5-yl)]Q[Dab]G[dPro(4R-Bzl(4-F))])), the IC50 was 0.035 nM. `CC[C@@H](C)[C@@H]1NC(=O)C(C)(C)NC(=O)[C@H]([C@@H](C)c2c[nH]c3cccc(F)c23)NC(=O)[C@@H]2C[C@H](F)CN2C(=O)CNC(=O)[C@H](Cc2ccc(C(=O)O)cc2)NC(=O)[C@H](Cc2ccncc2)NC(=O)[C@H](Cc2ccc(-c3ccc(C(=O)O)cc3)cc2)NC(=O)[C@H]2C[C@@H](Cc3ccc(F)cc3)CN2C(=O)CNC(=O)[C@H](CCN)NC(=O)[C@H](CCC(N)=O)NC(=O)[C@H](Cc2cncnc2)NC(=O)[C@](C)(CCCCN)NC(=O)[C@H](Cc2c[nH]c3ccccc23)NC1=O` [Example 136] (cyclo([Bip(4'-COOH)][4Pal][Phe(4-COOH)]G[Pro(cis-4-F)][Trp(βS-Me,4-F)][Aib][aIle]W[αMeK][Ala(pyrimidin-5-yl)]Q[Dab]G[dPro(4R-Bzl(4-F))])): the IC50 was found to be 0.027 nM. `C[C@@H](O)[C@@H]1NC(=O)C(C)(C)NC(=O)[C@H]([C@@H](C)c2c[nH]c3cccc(F)c23)NC(=O)[C@@H]2C[C@H](F)CN2C(=O)CNC(=O)[C@H](Cc2ccc(C(=O)O)cc2)NC(=O)[C@H](Cc2ccncc2)NC(=O)[C@H](Cc2ccc(-c3ccc(C(=O)O)cc3)cc2)NC(=O)[C@H]2C[C@@H](Cc3ccc(F)cc3)CN2C(=O)CNC(=O)[C@H](CCN)NC(=O)[C@H](CCC(N)=O)NC(=O)[C@H](Cc2cncnc2)NC(=O)[C@](C)(CCCCN)NC(=O)[C@H](Cc2c[nH]c3ccccc23)NC1=O` [Example 137] (cyclo([Bip(4'-COOH)][4Pal][Phe(4-COOH)]G[Pro(cis-4-F)][Trp(βS-Me,4-F)][Aib]TW[αMeK][Ala(pyrimidin-5-yl)]Q[Dab]G[dPro(4R-Bzl(4-F))])): the IC50 worked out at 0.022 nM. Turning to `C[C@H](O)[C@@H]1NC(=O)C(C)(C)NC(=O)[C@H]([C@@H](C)c2c[nH]c3cccc(F)c23)NC(=O)[C@@H]2C[C@H](F)CN2C(=O)CNC(=O)[C@H](Cc2ccc(C(=O)O)cc2)NC(=O)[C@H](Cc2ccncc2)NC(=O)[C@H](Cc2ccc(-c3ccc(C(=O)O)cc3)cc2)NC(=O)[C@H]2C[C@@H](Cc3ccc(F)cc3)CN2C(=O)CNC(=O)[C@H](CCN)NC(=O)[C@H](CCC(N)=O)NC(=O)[C@H](Cc2cncnc2)NC(=O)[C@](C)(CCCCN)NC(=O)[C@H](Cc2c[nH]c3ccccc23)NC1=O` [Example 138] (cyclo([Bip(4'-COOH)][4Pal][Phe(4-COOH)]G[Pro(cis-4-F)][Trp(βS-Me,4-F)][Aib][aThr]W[αMeK][Ala(pyrimidin-5-yl)]Q[Dab]G[dPro(4R-Bzl(4-F))])), the IC50 was found to be 0.021 nM. The value for `C[C@@H](c1c[nH]c2cccc(Cl)c12)[C@@H]1NC(=O)[C@@H]2C[C@H](F)CN2C(=O)CNC(=O)[C@H](Cc2ccc(C(=O)O)cc2)NC(=O)[C@H](Cc2ccncc2)NC(=O)[C@H](Cc2ccc(-c3ccc(C(=O)O)cc3)cc2)NC(=O)[C@H]2C[C@@H](Cc3ccc(F)cc3)CN2C(=O)CNC(=O)[C@H](CCN)NC(=O)[C@H](CCC(N)=O)NC(=O)[C@H](Cc2cncnc2)NC(=O)C(C)(C)NC(=O)[C@H](Cc2c[nH]c3ccccc23)NC(=O)[C@H](CO)NC(=O)C(C)(C)NC1=O` [Example 139] (cyclo([Bip(4'-COOH)][4Pal][Phe(4-COOH)]G[Pro(cis-4-F)][Trp(4-Cl)(βS-Me)][Aib]SW[Aib][Ala(pyrimidin-5-yl)]Q[Dab]G[dPro(4R-Bzl(4-F))])) was 0.034 nM.
